Laboratory results: patent US20160199351A1, “COMPOSITIONS AND METHODS FOR INHIBITING FUNGAL INFECTIONS” (priority 2015, published 2016)
≈ marks a conversion by molar mass, not a printed value. Where two headings read alike, the source gives them in different places.

Key:
Aspergillus fumigatus = experiment: Recovery of Aspergillus fumigatus mycelia growth after removal of antifungal drugs (MTT); format: cell-based; settings: treated 12 hours, drug removed, 24 hours more
Blastomyces dermatitidis [1] = experiment: MIC, macrodilution method (Table 1); format: cell-based; settings: 96 hours
Coccidioides sp. = experiment: microbe, parasite or virus in culture; format: cell-based; settings: Coccidioides
Blastomyces dermatitidis [2] = experiment: MIC (Table 6); format: cell-based; settings: read-out: MIC VORI 100% 50%
Fusarium solani = experiment: MIC, CLSI M38-A2 broth dilution (Table 1); format: cell-based; settings: isolate FS1, 48 hours
Lomentospora prolificans = experiment: MIC, CLSI M38-A2 broth dilution (Table 1); format: cell-based; settings: isolate LP1, 48 hours
Fusarium sp. = experiment: MIC (Table 5); format: cell-based; settings: Fusarium, read-out: MIC 100%
P. variotii = experiment: MIC (Table 5); settings: Paecilomyces variotii, read-out: MIC 100%
Scedosporium sp. = experiment: MIC (Table 5)
Scedosporium apiospermum = experiment: MIC, CLSI M38-A2 broth dilution (Table 1); format: cell-based
Paeceilomyces variotii = experiment: MIC, CLSI M38-A2 broth dilution (Table 1); format: cell-based; settings: isolate QC
Fusarium oxysporum = experiment: MIC, CLSI M38-A2 broth dilution (Table 1); format: cell-based
Pneumocystis murina = experiment: In vitro ATP content of Pneumocystis (luciferin-luciferase assay)
Pneumocystis carinii = experiment: as above
Histoplasma capsulatum = format: cell-based; settings: 24-hour treatment
C. guilliermondii = experiment: MIC against Candida species (Table 4); settings: Meyerozyma guilliermondii, 24 h
C. glabrata = experiment: MIC against Candida species (Table 4); settings: Nakaseomyces glabratus, 24 h
C. parapsilosis = experiment: MIC against Candida species (Table 4); settings: 24 h
Cryptococcus neoformans = experiment: MIC against Cryptococcus neoformans (Table 4); settings: Cryptococcus neoformans, 72 h
C. krusei = experiment: MIC against Candida species (Table 4); settings: Pichia kudriavzevii, 24 h
Rhizopus oryzae [3] = experiment: MIC (Table 5); settings: Rhizopus arrhizus, 24 h
Apophysomyces = experiment: MIC (Table 5); settings: 24 h
Rhizopus oryzae [4] = experiment: MIC, CLSI M38-A2 broth dilution (Table 1); format: cell-based

C[C@@H]1[C@H](O)[C@@H](C)/C=C/C=C/C=C/C=C/C=C/C=C/C=C/[C@H](O[C@@H]2O[C@H](C)[C@@H](O)[C@H](N)[C@@H]2O)C[C@@H]2O[C@](O)(C[C@@H](O)C[C@@H](O)[C@H](O)CC[C@@H](O)C[C@@H](O)CC(=O)O[C@H]1C)C[C@H](O)[C@H]2C(=O)O [amphotericin B]
recovery of mycelia growth after removal of drug (Aspergillus fumigatus): no viable Aspergillus fumigatus mycelia

C[C@@H](c1ncncc1F)[C@](O)(Cn1cncn1)c1ccc(F)cc1F [VORI, Voriconazole, reference compound]
MIC 100% (Blastomyces dermatitidis [1]; isolate BD1, macrodilution): 0.125 gg/m1
MIC 100% (Blastomyces dermatitidis [1]; isolate BD2, macrodilution): ≦0.03 gg/m1
MIC 100% (Blastomyces dermatitidis [1]; isolate BD3, macrodilution): ≦0.03 gg/m1
MIC (Coccidioides sp.; read-out: MIC VORI 100% 50%, isolate COCCI-1, 72/192 hrs): 0.125 µg/mL (≈ 0.358 µM)
MIC (Coccidioides sp.; read-out: MIC VORI 100% 50%, isolate COCCI-2, 72/192 hrs): 0.25 µg/mL (≈ 0.716 µM)
MIC (Coccidioides sp.; read-out: MIC VORI 100% 50%, isolate COCCI-3, 72/192 hrs): 0.125 µg/mL (≈ 0.358 µM)
MIC (Blastomyces dermatitidis [2]; isolate BD1, 72/192 hrs): ≤ 0.03 µg/mL
MIC (Blastomyces dermatitidis [2]; isolate BD2, 72/192 hrs): 0.125 µg/mL (≈ 0.358 µM)
MIC (Blastomyces dermatitidis [2]; isolate BD3, 72/192 hrs): 0.125 µg/mL (≈ 0.358 µM)
MIC 100% (Fusarium solani): 8 gg/m1
MIC 100% (Lomentospora prolificans): 16 gg/m1
recovery of mycelia growth after removal of drug (Aspergillus fumigatus): leaves mycelia viable
MIC (Fusarium sp.; isolate F-1, 48/72 hrs): 8 µg/mL (≈ 22.9 µM)
MIC (Fusarium sp.; isolate F-2, 48/72 hrs): 8 µg/mL (≈ 22.9 µM)
MIC (Fusarium sp.; isolate F-3, 48/72 hrs): > 16 µg/mL
MIC (P. variotii): 0.06 µg/mL (≈ 0.172 µM)
MIC (Scedosporium sp.; read-out: MIC 100%, isolate S-1, 48/72 hrs): 0.5 µg/mL (≈ 1.43 µM)
MIC (Scedosporium sp.; read-out: MIC 100%, isolate S-2, 48/72 hrs): 16 µg/mL (≈ 45.8 µM)
MIC 100% (Scedosporium apiospermum; isolate SA1, 72 hours): 0.25 gg/m1
MIC 100% (Scedosporium apiospermum; isolate SA2, 72 hours): 0.125 gg/m1
MIC 100% (Paeceilomyces variotii): 0.125 gg/m1
MIC 100% (Fusarium oxysporum; isolate FO1, 48 hours): 16 gg/m1
MIC 100% (Fusarium oxysporum; isolate FO2, 48 hours): 16 gg/m1

CC1(C)S[C@@H]2[C@H](NC(=O)[C@H](N)c3ccccc3)C(=O)N2[C@H]1C(=O)O [Ampicillin, ampicillin, reference compound]
Pm % Reduction in ATP/Vehicle Control (Pneumocystis murina; Table 3, 10 μg/ml, 24 hours): 0%
Pm % Reduction in ATP/Vehicle Control (Pneumocystis murina; Table 3, 10 μg/ml, 48 hours): 0%
Pm % Reduction in ATP/Vehicle Control (Pneumocystis murina; Table 3, 10 μg/ml, 72 hours): 0%
Pm % Reduction in ATP/Vehicle Control (Pneumocystis carinii; Table 2, 10 μg/ml, 24 hours): 0%
Pm % Reduction in ATP/Vehicle Control (Pneumocystis carinii; Table 2, 10 μg/ml, 48 hours): 0%
Pm % Reduction in ATP/Vehicle Control (Pneumocystis carinii; Table 2, 10 μg/ml, 72 hours): 0%

CC[C@H](C)C[C@H](C)CCCCCCCCC(=O)N[C@H]1C[C@@H](O)[C@@H](NCCN)NC(=O)[C@@H]2[C@@H](O)CCN2C(=O)[C@H]([C@H](O)CCN)NC(=O)[C@H]([C@H](O)[C@@H](O)c2ccc(O)cc2)NC(=O)[C@@H]2C[C@@H](O)CN2C(=O)[C@H]([C@@H](C)O)NC1=O [caspofungin]
recovery of mycelia growth after removal of drug (Aspergillus fumigatus): leaves mycelia viable

OC(Cn1cncn1)(Cn1cncn1)c1ccc(F)cc1F [FLU, Fluconazole, reference compound]
reduction of fungal viability (Histoplasma capsulatum; then growth in absence of drug): did not significantly reduce fungal viability
viability staining of yeasts (Histoplasma capsulatum; ethidium bromide / fluorescein staining): only fungistatic
MIC50 (C. guilliermondii; isolate Cgu-1, 24 hrs): 8 µg/mL (≈ 26.1 µM)
MIC50 (C. guilliermondii; isolate Cgu-2, 24 hrs): 2 µg/mL (≈ 6.53 µM)
MIC50 (C. guilliermondii; isolate Cgu-3, 24 hrs): 1 µg/mL (≈ 3.27 µM)
MIC50 (C. guilliermondii; isolate Cgu-4, 24 hrs): 1 µg/mL (≈ 3.27 µM)
MIC50 (C. guilliermondii; isolate Cgu-5, 24 hrs): 2 µg/mL (≈ 6.53 µM)
MIC50 (C. guilliermondii; isolate Cgu-6, 24 hrs): 8 µg/mL (≈ 26.1 µM)
MIC50 (C. guilliermondii; isolate Cgu-7, 24 hrs): 4 µg/mL (≈ 13.1 µM)
MIC50 (C. glabrata; isolate CG-1, 24 hrs): 16 µg/mL (≈ 52.2 µM)
MIC50 (C. glabrata; isolate CG-2, 24 hrs): 16 µg/mL (≈ 52.2 µM)
MIC50 (C. glabrata; isolate CG-3, 24 hrs): 32 µg/mL (≈ 104 µM)
MIC50 (C. glabrata; isolate CG-4, 24 hrs): 32 µg/mL (≈ 104 µM)
MIC50 (C. glabrata; isolate CG-5, 24 hrs): 16 µg/mL (≈ 52.2 µM)
MIC50 (C. glabrata; isolate CG-6, 24 hrs): 2 µg/mL (≈ 6.53 µM)
MIC50 (C. glabrata; isolate CG-7, 24 hrs): 2 µg/mL (≈ 6.53 µM)
MIC50 (C. glabrata; isolate CG-8, 24 hrs): 2 µg/mL (≈ 6.53 µM)
MIC50 (C. glabrata; isolate CG-9, 24 hrs): 2 µg/mL (≈ 6.53 µM)
MIC50 (C. glabrata; isolate CG-10, 24 hrs): 4 µg/mL (≈ 13.1 µM)
MIC50 (C. parapsilosis; isolate CP-1, 24 hrs): 0.25 µg/mL (≈ 0.816 µM)
MIC50 (C. parapsilosis; isolate CP-2, 24 hrs): ≤ 0.125 µg/mL
MIC50 (C. parapsilosis; isolate CP-3, 24 hrs): 0.25 µg/mL (≈ 0.816 µM)
MIC50 (C. parapsilosis; isolate CP-4, 24 hrs): 0.25 µg/mL (≈ 0.816 µM)
MIC50 (C. parapsilosis; isolate CP-5, 24 hrs): ≤ 0.125 µg/mL
MIC50 (C. parapsilosis; isolate CP-6, 24 hrs): 16 µg/mL (≈ 52.2 µM)
MIC50 (C. parapsilosis; isolate CP-7, 24 hrs): 16 µg/mL (≈ 52.2 µM)
MIC50 (C. parapsilosis; isolate QC): 1 µg/mL (≈ 3.27 µM)
MIC50 (Cryptococcus neoformans; isolate CN-1, 72 hrs): 4 µg/mL (≈ 13.1 µM)
MIC50 (Cryptococcus neoformans; isolate CN-2, 72 hrs): 12 µg/mL (≈ 39.2 µM)
MIC50 (Cryptococcus neoformans; isolate CN-3, 72 hrs): 64 µg/mL (≈ 209 µM)
MIC50 (C. krusei): 8 µg/mL (≈ 26.1 µM)

CC[C@@H]([C@H](C)O)n1ncn(-c2ccc(N3CCN(c4ccc(OC[C@@H]5CO[C@@](Cn6cncn6)(c6ccc(F)cc6F)C5)cc4)CC3)cc2)c1=O [POS, Posaconazole, reference compound]
MIC (Rhizopus oryzae [3]; read-out: MIC 100%, isolate R-1, 24 hrs): 0.5 µg/mL (≈ 0.713 µM)
MIC (Rhizopus oryzae [3]; read-out: MIC 100%, isolate R-2, 24 hrs): 0.5 µg/mL (≈ 0.713 µM)
MIC (Rhizopus oryzae [3]; read-out: MIC 100%, isolate R-3, 24 hrs): 0.5 µg/mL (≈ 0.713 µM)
MIC (Rhizopus oryzae [3]; read-out: MIC 100%, isolate R-4, 24 hrs): 0.125 µg/mL (≈ 0.178 µM)
MIC (Rhizopus oryzae [3]; read-out: MIC 100%, isolate R-5, 24 hrs): 0.25 µg/mL (≈ 0.357 µM)
MIC (Rhizopus oryzae [3]; read-out: MIC 100%, isolate R-6, 24 hrs): 0.125 µg/mL (≈ 0.178 µM)
MIC (Apophysomyces; read-out: MIC 100%, isolate AE-1, 24 hrs): 0.125 µg/mL (≈ 0.178 µM)
MIC (Apophysomyces; read-out: MIC 100%, isolate AE-2, 24 hrs): 1 µg/mL (≈ 1.43 µM)
MIC 100% (Rhizopus oryzae [4]; isolate RO1, 24 hours): 1 gg/m1
MIC 100% (Rhizopus oryzae [4]; isolate RO2, 24 hours): 1 gg/m1
MIC 100% (Rhizopus oryzae [4]; isolate RO3, 24 hours): 1 gg/m1
MIC 100% (Lomentospora prolificans): 0.5 gg/m1
MIC (P. variotii; 24 h): 0.06 µg/mL (≈ 0.0856 µM)
MIC 100% (Scedosporium apiospermum; isolate SA2, 72 hours): 2 gg/m1
MIC 100% (Paeceilomyces variotii): 0.25 gg/m1

N=C(N)c1ccc(OCCCCCOc2ccc(C(=N)N)cc2)cc1 [Pent., pentamidine isethionate, reference compound]
Pm % Reduction in ATP/Vehicle Control (Pneumocystis murina; Table 3, 1 μg/ml, 24 hours): 72.06%
Pm % Reduction in ATP/Vehicle Control (Pneumocystis murina; Table 3, 1 μg/ml, 48 hours): 87.94%
Pm % Reduction in ATP/Vehicle Control (Pneumocystis murina; Table 3, 1 μg/ml, 72 hours): 93.85%
Pm % Reduction in ATP/Vehicle Control (Pneumocystis carinii; Table 2, 1 μg/ml, 24 hours): 74.18%
Pm % Reduction in ATP/Vehicle Control (Pneumocystis carinii; Table 2, 1 μg/ml, 48 hours): 97.06%
Pm % Reduction in ATP/Vehicle Control (Pneumocystis carinii; Table 2, 1 μg/ml, 72 hours): 97.47%
